Data reported in patent US20130303500A1, “COMPOUNDS AND METHODS FOR TREATING NEOPLASIA” (Medexis S.A., priority 2010, published 2013).

Assays:
DU145 (Prostate) cells = test: MTT cell proliferation/viability assay, DU145; type: cell-based; settings: Homo sapiens, DU-145, 72 h
Method: Cell proliferation/viability was assessed by the MTT [3-(4,5-dimethylthiazol-2-yl)-2,5-diphenyltetrazolium bromide] assay, which is commercially available (Sigma, St. Louis, Mo.). Cells were cultured in 96-well plates for twenty-four hours (7-10.000 cells/well) and incubated with various concentrations of the different compounds—as indicated in the Figures—in serum-containing medium (or left untreated) for seventy-two hours. At the end of incubation, the medium was aspirated and MTT dissolved in RPMI 1640 w/o phenol red was added to each well to a final concentration of 0.25 mg/ml. After four hours incubation in the dark (37° C., 5% CO2) the supernatant was discarded. The converted dye (blue formazan crystals) was solubilized by adding 200 μl dimethylsulfoxide to each well. Absorbance was measured at 550 nm with reference at 655 nm using a spectrophotometer with the respective filters. All assays were performed in triplicate.
The effect of the different compounds on the proliferation and viability of two cancer cell lines (DU145/prostate and CAKI/renal) was tested through quantitative (4,5-dimethylthiazol-2-yl)-2,5-diphenyltetrazolium bromide (MTT) assays.

[1] = system: 7 different cell lines (lung, ovarian, prostate, CNS, breast, colon); test: SRB assays across 7 cell lines; type: cell-based, human
Method: (§1) Sulforhodamine B (SRB) assays were performed according to standard National Cancer Institute Guidelines. Briefly, human tumor cells from different cancer panels were seeded into 96 well plates in […] (plating densities ranging from 5-40,000 cells/well depending on the doubling time of individual cell lines) in serum-containing media for twenty-four hours prior to the addition of the compounds to be assayed. After 24 hours, one plate of each cell line was fixed in situ with trichloroacetic acid (TCA). The fixed slides were used to determine the cell population for each cell line at the time of drug addition (Tz). Each compound to be tested was solubilized in dimethyl sulfoxide (DMSO) and the desired concentration was then added to the medium and diluted serially 1:10 to provide a total of five or ten drug concentrations plus control (in a final volume of 200 μL). The starting dose before any dilution was 100 uM for all compounds.
(§2) Following drug addition, each culture was incubated for forty-eight hours. The assay was terminated with the addition of cold TCA. The supernatant was discarded, and the plates were washed with tap water and air dried. SRB solution was then added to each well. After staining, the bound stain was solubilized and the absorbance was read on an automated plate reader at a wavelength of 515 nm.
(§3) Using the absorbance measurements [time zero, (Tz), control growth, (C), and test growth in the presence of drug at the ten concentration levels (Ti)], the percentage growth was calculated at each of the drug concentrations levels. Percentage growth inhibition was calculated as:
(§4) [(Ti−Tz)/(C−Tz)]×100 for concentrations for which Ti>/=Tz
(§5) [(Ti−Tz)/Tz]×100 for concentrations for which Ti<Tz.
(§6) Three dose response parameters were calculated for each experimental agent. Growth inhibition of 50% (GI50) was calculated from [(Ti−Tz)/(C−Tz)]×100=50, which was the drug concentration resulting in a 50% reduction in the net protein increase (as measured by SRB staining) in control cells during the drug. The drug concentration resulting in total growth inhibition (TGI) was calculated from Ti=Tz. The LC50 (concentration of drug resulting in a 50% reduction in the measured protein at the end of the drug treatment as compared to that at the beginning) indicating a net loss of cells following treatment was calculated from [(Ti−Tz)/Tz]×100=−50.
(§7) Values were calculated for each of these three parameters when the level of activity was reached; however, if the effect was not reached or was exceeded, the value for that parameter was expressed as greater or less than the maximum or minimum concentration tested.
SRB provides a colorimetric measure of a compound's anti-cancer activity. SRB assays were performed with compounds of the invention in 7 different cell lines, which represent six different tumor panels (lung, ovarian, prostate, CNS, breast, colon).

A549 (Lung) cells = test: Sulforhodamine B (SRB) assay, A549; type: cell-based; settings: Homo sapiens
Method: as §1, §2, §3, §4, §5, §6, §7

[2] = system: membrane androgen receptor; test: Membrane androgen receptor competition assay with testosterone-HSA-FITC in DU145 cells; type: binding; design: membrane fluorescence (binding of TAC-FITC to the membrane androgen receptor): dose or concentration left out as unconfirmed
Method: The detection of membrane androgen receptors using fluorescent testosterone-serum albumin conjugates was performed as described by Kampa, M et al., 2002, Faseb J 16:1429-1431, with minor modifications. The assay was used to measure the ability of a given compound to preclude binding of a fluorescent mAR ligand (testosterone-HSA-FITC conjugates) to its receptor in DU145 cells; this compound-induced effect is indicative of direct mAR binding (see Kampa et al and PCT/US2007/007913). […] Coverslips were mounted on slides by using the Slow Fade/Antifade Reagent (Molecular Probes) and studied under a LEICA DMLB microscope, equipped with the appropriate fluorescence filters and a Leica DC 300F camera. Specimens were analyzed using the Leica FW4000 computer program.
Membrane androgen receptor competition assays were performed to determine the capacity of a given compound to preclude binding of fluorescent testosterone-HSA conjugates (TAC) to the membrane androgen receptor. […] Specimens were prepared and analyzed as described above. Compounds binding to the membrane androgen receptor preclude binding of fluorescent testosterone-HSA conjugates to their target and abolish membrane-specific fluorescence.

## C[C@]12CCC(=NOC3CCNC3)CC1CCC1C2CC[C@]2(C)C(=O)C(F)CC12 (stereo partly drawn) [Compound 2, (5S,10S,13S,16R)-16a-fluoro-10,13-dimethyl-3-((S)-pyrrolidin-3-yloxyimino)-tetradecahydro-2H-cyclopenta[a]phenanthren-17(14H)-one]
DU145 (Prostate) cells
  IC50: 250 nM
[1]; Homo sapiens, read-out: LC50 values
  CC50: < 1000 nM
[1]; Homo sapiens, SRB, average over cell lines
  GI50: < 1000 nM
[1]; cell lines representative of lung, breast, CNS, prostate, ovarian, colon and renal neoplasias
  viability and/or cell proliferation of cell lines: reduced the viability and/or cell proliferation
A549 (Lung) cells; A549, 48 h, read-out: LC50
  CC50: 599 nM
A549 (Lung) cells; A549 Lung, SRB, 48 h
  GI50: 9 nM
  IC (TGI): 73 nM
[2]; DU145 cells
  binding to the membrane androgen receptor (conclusion): capable of binding to the membrane androgen receptor
[2]; DU145 cells pre-treated with compound for 30 minutes, then testosterone-HSA-FITC
  membrane fluorescence (binding of TAC-FITC to the membrane androgen receptor): largely reduced
